According to the NIST ThermoML archive (doi:10.1016/j.jct.2008.10.002):

Legend:
[1] = molar heat capacity at constant pressure; xn = mol fraction of the nth substance listed; conditions: 101.3 kPa, Liquid, Small sample (50 mg) DSC
[2] = excess molar enthalpy (molar enthalpy of mixing); xn = mol fraction of the nth substance listed; conditions: 303.15 K, 101.3 kPa, Liquid
[3] = xn = mol fraction of the nth substance listed; conditions: 101.3 kPa, Liquid, Vibrating tube method

CCCCn1cc[n+](C)c1.COS(=O)(=O)[O-] [1-butyl-3-methylimidazolium methyl sulfate] + O
Conditions	mass density, [3] [kg/m3]	molar heat capacity at constant pressure, [1] [J/K/mol]
293.15 K, x1 = 0.0213	1041.7	84.8
293.15 K, x1 = 0.0489	1081	95.3
293.15 K, x1 = 0.0996	1123.8	112
293.15 K, x1 = 0.1975	1162.3	143.8
293.15 K, x1 = 0.2938	1180	175.2
293.15 K, x1 = 0.3948	1190.5	207.8
293.15 K, x1 = 0.4809	1196.3	235.7
293.15 K, x1 = 0.5724	1200.7	265.9
293.15 K, x1 = 0.6552	1203.6	293.4
293.15 K, x1 = 0.8002	1207.3	343.5
293.15 K, x1 = 0.8199	1207.7	–
293.15 K, x1 = 0.9554	1210	397.9
298.15 K, x1 = 0.0213	1039.7	84.8
298.15 K, x1 = 0.0489	1078.3	95.6
298.15 K, x1 = 0.0996	1120.5	112.6
298.15 K, x1 = 0.1975	1158.8	144.9
298.15 K, x1 = 0.2938	1176.5	176.5
298.15 K, x1 = 0.3948	1187	209.3
298.15 K, x1 = 0.4809	1192.9	237.3
298.15 K, x1 = 0.5724	1197.3	267.7
298.15 K, x1 = 0.6552	1200.3	295.3
298.15 K, x1 = 0.8002	1204	345.5
298.15 K, x1 = 0.8199	1204.3	–
298.15 K, x1 = 0.9554	1206.7	400.1
303.15 K, x1 = 0.0213	1037.5	84.9
303.15 K, x1 = 0.0489	1075.4	96
303.15 K, x1 = 0.0996	1117.1	113.3
303.15 K, x1 = 0.1975	1155.2	146.1
303.15 K, x1 = 0.2938	1173	177.8
303.15 K, x1 = 0.3948	1183.6	210.8
303.15 K, x1 = 0.4809	1189.5	239
303.15 K, x1 = 0.5724	1193.9	269.5
303.15 K, x1 = 0.6552	1196.9	297.3
303.15 K, x1 = 0.8002	1200.7	347.6
303.15 K, x1 = 0.8199	1201	–
303.15 K, x1 = 0.9554	1203.4	402.3
308.15 K, x1 = 0.0213	1035.2	84.9
308.15 K, x1 = 0.0489	1072.4	96.2
308.15 K, x1 = 0.0996	1113.6	113.9
308.15 K, x1 = 0.1975	1151.7	147.1
308.15 K, x1 = 0.2938	1169.5	179
308.15 K, x1 = 0.3948	1180.2	212.2
308.15 K, x1 = 0.4809	1186.1	240.5
308.15 K, x1 = 0.5724	1190.6	271.2
308.15 K, x1 = 0.6552	1193.6	299.2
308.15 K, x1 = 0.8002	1197.4	349.7
308.15 K, x1 = 0.8199	1197.7	–
308.15 K, x1 = 0.9554	1200.1	404.5
313.15 K, x1 = 0.0213	1032.7	84.9
313.15 K, x1 = 0.0489	1069.3	96.5
313.15 K, x1 = 0.0996	1110.1	114.5
313.15 K, x1 = 0.1975	1148	148.1
313.15 K, x1 = 0.2938	1166	180.3
313.15 K, x1 = 0.3948	1176.7	213.6
313.15 K, x1 = 0.4809	1182.7	242.1
313.15 K, x1 = 0.5724	1187.2	272.9
313.15 K, x1 = 0.6552	1190.3	301.2
313.15 K, x1 = 0.8002	1194.1	351.7
313.15 K, x1 = 0.8199	1194.4	–
313.15 K, x1 = 0.9554	1196.8	406.7
318.15 K, x1 = 0.0213	1030.1	85.1
318.15 K, x1 = 0.0489	1066.2	96.8
318.15 K, x1 = 0.0996	1106.6	115.2
318.15 K, x1 = 0.1975	1144.4	149.1
318.15 K, x1 = 0.2938	1162.5	181.6
318.15 K, x1 = 0.3948	1173.3	215
318.15 K, x1 = 0.4809	1179.3	243.7
318.15 K, x1 = 0.5724	1183.9	274.6
318.15 K, x1 = 0.6552	1186.9	303.1
318.15 K, x1 = 0.8002	1190.8	353.8
318.15 K, x1 = 0.8199	1191.1	–
318.15 K, x1 = 0.9554	1193.6	408.9

[2]
Conditions	excess molar enthalpy [kcal/mol]
x1 = 0.0506	-0.0676
x1 = 0.1003	-0.0966
x1 = 0.1461	-0.115
x1 = 0.2018	-0.125
x1 = 0.299	-0.128
x1 = 0.4021	-0.117
x1 = 0.5447	-0.0987
x1 = 0.6795	-0.0755
x1 = 0.8434	-0.0413

CCCCn1cc[n+](C)c1.O=S(=O)([O-])C(F)(F)F [1-butyl-3-methylimidazolium trifluoromethanesulfonate] + O
Conditions	mass density, [3] [kg/m3]	molar heat capacity at constant pressure, [1] [J/K/mol]
293.15 K, x1 = 0.0496	1119.8	98.5
293.15 K, x1 = 0.1012	1176.7	–
293.15 K, x1 = 0.1415	1202.8	131.9
293.15 K, x1 = 0.197	1227.4	–
293.15 K, x1 = 0.2965	1252.5	–
293.15 K, x1 = 0.3369	1259.7	200.1
293.15 K, x1 = 0.3873	1266.8	–
293.15 K, x1 = 0.4868	1277.3	250
293.15 K, x1 = 0.5637	1283.2	274.4
293.15 K, x1 = 0.6636	1289.1	307.4
293.15 K, x1 = 0.7124	1291.6	322.5
293.15 K, x1 = 0.796	1295.2	350.7
293.15 K, x1 = 0.9017	1298.8	387.2
293.15 K, x1 = 0.9456	1300.1	–
298.15 K, x1 = 0.0496	1116.9	98.7
298.15 K, x1 = 0.1012	1173.2	–
298.15 K, x1 = 0.1415	1199	132.6
298.15 K, x1 = 0.197	1223.4	–
298.15 K, x1 = 0.2965	1248.4	–
298.15 K, x1 = 0.3369	1255.6	201.3
298.15 K, x1 = 0.3873	1262.7	–
298.15 K, x1 = 0.4868	1273.2	251.5
298.15 K, x1 = 0.5637	1279.1	276.1
298.15 K, x1 = 0.6636	1285.1	309.4
298.15 K, x1 = 0.7124	1287.6	324.4
298.15 K, x1 = 0.796	1291.2	352.9
298.15 K, x1 = 0.9017	1294.8	389.4
298.15 K, x1 = 0.9456	1296.1	–
303.15 K, x1 = 0.0496	1113.8	98.9
303.15 K, x1 = 0.1012	1169.5	–
303.15 K, x1 = 0.1415	1195.1	133.3
303.15 K, x1 = 0.197	1219.3	–
303.15 K, x1 = 0.2965	1244.3	–
303.15 K, x1 = 0.3369	1251.5	202.7
303.15 K, x1 = 0.3873	1258.6	–
303.15 K, x1 = 0.4868	1269.1	253.2
303.15 K, x1 = 0.5637	1275.1	277.8
303.15 K, x1 = 0.6636	1281.1	311.5
303.15 K, x1 = 0.7124	1283.6	326.4
303.15 K, x1 = 0.796	1287.2	355.2
303.15 K, x1 = 0.9017	1290.9	391.8
303.15 K, x1 = 0.9456	1292.2	–
308.15 K, x1 = 0.0496	1110.6	99.1
308.15 K, x1 = 0.1012	1165.7	–
308.15 K, x1 = 0.1415	1191.2	134
308.15 K, x1 = 0.197	1215.3	–
308.15 K, x1 = 0.2965	1240.2	–
308.15 K, x1 = 0.3369	1247.4	204.1
308.15 K, x1 = 0.3873	1254.5	–
308.15 K, x1 = 0.4868	1265.1	254.9
308.15 K, x1 = 0.5637	1271	279.7
308.15 K, x1 = 0.6636	1277.1	313.7
308.15 K, x1 = 0.7124	1279.6	328.5
308.15 K, x1 = 0.796	1283.2	357.6
308.15 K, x1 = 0.9017	1286.9	394.4
308.15 K, x1 = 0.9456	1288.2	–
313.15 K, x1 = 0.0496	1107.3	99.4
313.15 K, x1 = 0.1012	1161.9	–
313.15 K, x1 = 0.1415	1187.1	134.8
313.15 K, x1 = 0.197	1211.2	–
313.15 K, x1 = 0.2965	1236	–
313.15 K, x1 = 0.3369	1243.3	205.5
313.15 K, x1 = 0.3873	1250.4	–
313.15 K, x1 = 0.4868	1261	256.7
313.15 K, x1 = 0.5637	1267	281.7
313.15 K, x1 = 0.6636	1273.1	316.1
313.15 K, x1 = 0.7124	1275.6	330.7
313.15 K, x1 = 0.796	1279.2	360.2
313.15 K, x1 = 0.9017	1283	397
313.15 K, x1 = 0.9456	1284.3	–
318.15 K, x1 = 0.0496	1103.9	99.7
318.15 K, x1 = 0.1012	1158	–
318.15 K, x1 = 0.1415	1183.1	135.7
318.15 K, x1 = 0.197	1207	–
318.15 K, x1 = 0.2965	1231.9	–
318.15 K, x1 = 0.3369	1239.1	207.1
318.15 K, x1 = 0.3873	1246.3	–
318.15 K, x1 = 0.4868	1256.9	258.7
318.15 K, x1 = 0.5637	1263	283.7
318.15 K, x1 = 0.6636	1269.1	318.6
318.15 K, x1 = 0.7124	1271.6	333.1
318.15 K, x1 = 0.796	1275.3	362.9
318.15 K, x1 = 0.9017	1279	399.9
318.15 K, x1 = 0.9456	1280.3	–

[2]
Conditions	excess molar enthalpy [kcal/mol]
x1 = 0.1007	0.157
x1 = 0.1989	0.257
x1 = 0.2954	0.312
x1 = 0.3944	0.332
x1 = 0.4985	0.317
x1 = 0.5757	0.293
x1 = 0.6624	0.245
x1 = 0.8201	0.136
